In the supplement of paper PMC10307832:

Columns and labels:
Assay in all cases: relative viability (nuclei count vs DMSO), 5 days (fraction); higher = more cells survive
NCI-H1734 = test system: NCI-H1734
Outline: (§1)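 A single step with final 0.05% Triton X-100, 1% formaldehyde and 1 ug/ml Hoechst fixed the cells and stained nuclei 5 days after treatment. Lung cancer cell lines in 1536-well plates had been treated by pin tool the day after seeding with one drug alone or a fixed anchor-drug dose plus five library-drug doses (not always all listed) in √10 steps, and nuclei were counted on 4× images. Relative viability is the ratio of nuclei in treated wells to nuclei in vehicle wells, taken as the median of duplicate plates.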

EKVX = test system: EKVX
Outline: as §1

NCI-H838 = test system: NCI-H838
Outline: as §1

SK-MES-1 = test system: SK-MES-1
Outline: as §1

NCI-H520 = test system: NCI-H520
Outline: as §1

NCI-H1993 = test system: NCI-H1993
Outline: as §1

ABC-1 = test system: ABC-1
Outline: as §1

UMC-11 = test system: UMC-11
Outline: as §1

NCI-H1355 = test system: NCI-H1355
Outline: as §1

H3255 = test system: H3255
Outline: as §1

SK-LU-1 = test system: SK-LU-1
Outline: as §1

NCI-H2009 = test system: NCI-H2009
Outline: as §1

LC-2-ad = test system: LC-2-ad
Outline: as §1

NCI-H1650 = test system: NCI-H1650
Outline: as §1

EMC-BAC-2 = test system: EMC-BAC-2
Outline: as §1

SW 1573 = test system: SW 1573
Outline: as §1

NCI-H2087 = test system: NCI-H2087
Outline: as §1

NCI-H661 = test system: NCI-H661
Outline: as §1

LU99A = test system: LU99A
Outline: as §1

CAL-12T = test system: CAL-12T
Outline: as §1

BEN = test system: BEN
Outline: as §1

NCI-H2085 = test system: NCI-H2085
Outline: as §1

NCI-H522 = test system: NCI-H522
Outline: as §1

NCI-H2342 = test system: NCI-H2342
Outline: as §1

Nc1cccc2c1CN(C1CCC(=O)NC1=O)C2=O (stereo not given) [Lenalidomide] + O=C(CCCCCCC(=O)Nc1ccccc1)NO [Vorinostat] (partner 1 µM)
relative viability (NCI-H1734; first compound 0.253 µM): 0.855 | relative viability (NCI-H1734; first compound 0.8 µM): 0.759 | relative viability (NCI-H1734; first compound 2.53 µM): 0.871 | relative viability (NCI-H1734; first compound 8 µM): 0.735 | relative viability (EKVX; first compound 0.253 µM): 0.765 | relative viability (EKVX; first compound 0.8 µM): 0.668 | relative viability (EKVX; first compound 2.53 µM): 0.954 | relative viability (EKVX; first compound 8 µM): 0.636 | relative viability (NCI-H838; first compound 0.253 µM): 0.732 | relative viability (NCI-H838; first compound 0.8 µM): 0.692 | relative viability (NCI-H838; first compound 2.53 µM): 0.712 | relative viability (NCI-H838; first compound 8 µM): 0.697 | relative viability (SK-MES-1; first compound 0.253 µM): 0.99 | relative viability (SK-MES-1; first compound 0.8 µM): 0.881 | relative viability (SK-MES-1; first compound 2.53 µM): 1.19 | relative viability (SK-MES-1; first compound 8 µM): 1.06 | relative viability (NCI-H520; first compound 0.253 µM): 0.738 | relative viability (NCI-H520; first compound 0.8 µM): 0.74 | relative viability (NCI-H520; first compound 2.53 µM): 0.731 | relative viability (NCI-H520; first compound 8 µM): 0.698 | relative viability (NCI-H1993; first compound 0.253 µM): 0.872 | relative viability (NCI-H1993; first compound 0.8 µM): 0.615 | relative viability (NCI-H1993; first compound 2.53 µM): 0.962 | relative viability (NCI-H1993; first compound 8 µM): 0.383 | relative viability (ABC-1; first compound 0.253 µM): 1.31 | relative viability (ABC-1; first compound 0.8 µM): 1.1 | relative viability (ABC-1; first compound 2.53 µM): 1.36 | relative viability (ABC-1; first compound 8 µM): 1.46 | relative viability (UMC-11; first compound 0.253 µM): 0.441 | relative viability (UMC-11; first compound 0.8 µM): 0.378 | relative viability (UMC-11; first compound 2.53 µM): 0.428 | relative viability (UMC-11; first compound 8 µM): 0.381 | relative viability (NCI-H1355; first compound 0.253 µM): 0.608 | relative viability (NCI-H1355; first compound 0.8 µM): 0.455 | relative viability (NCI-H1355; first compound 2.53 µM): 0.707 | relative viability (NCI-H1355; first compound 8 µM): 0.495 | relative viability (H3255; first compound 0.253 µM): 0.716 | relative viability (H3255; first compound 0.8 µM): 0.515 | relative viability (H3255; first compound 2.53 µM): 0.823 | relative viability (H3255; first compound 8 µM): 0.862 | relative viability (SK-LU-1; first compound 0.253 µM): 0.763 | relative viability (SK-LU-1; first compound 0.8 µM): 0.877 | relative viability (SK-LU-1; first compound 2.53 µM): 0.909 | relative viability (SK-LU-1; first compound 8 µM): 0.759 | relative viability (NCI-H2009; first compound 0.253 µM): 0.686 | relative viability (NCI-H2009; first compound 0.8 µM): 0.72 | relative viability (NCI-H2009; first compound 2.53 µM): 0.852 | relative viability (NCI-H2009; first compound 8 µM): 0.769 | relative viability (LC-2-ad; first compound 0.253 µM): 0.733 | relative viability (LC-2-ad; first compound 0.8 µM): 0.643 | relative viability (LC-2-ad; first compound 2.53 µM): 0.718 | relative viability (LC-2-ad; first compound 8 µM): 0.735 | relative viability (NCI-H1650; first compound 0.253 µM): 0.545 | relative viability (NCI-H1650; first compound 0.8 µM): 0.527 | relative viability (NCI-H1650; first compound 2.53 µM): 0.543 | relative viability (NCI-H1650; first compound 8 µM): 0.664 | relative viability (EMC-BAC-2; first compound 0.253 µM): 0.74 | relative viability (EMC-BAC-2; first compound 0.8 µM): 0.42 | relative viability (EMC-BAC-2; first compound 2.53 µM): 0.446 | relative viability (EMC-BAC-2; first compound 8 µM): 0.335 | relative viability (SW 1573; first compound 0.253 µM): 0.456 | relative viability (SW 1573; first compound 0.8 µM): 0.822 | relative viability (SW 1573; first compound 2.53 µM): 0.974 | relative viability (SW 1573; first compound 8 µM): 0.759 | relative viability (NCI-H2087; first compound 0.253 µM): 0.809 | relative viability (NCI-H2087; first compound 2.53 µM): 0.84 | relative viability (NCI-H2087; first compound 8 µM): 0.56 | relative viability (NCI-H661; first compound 0.253 µM): 0.737 | relative viability (NCI-H661; first compound 0.8 µM): 0.828 | relative viability (NCI-H661; first compound 2.53 µM): 0.893 | relative viability (NCI-H661; first compound 8 µM): 0.848 | relative viability (LU99A; first compound 0.253 µM): 0.461 | relative viability (LU99A; first compound 0.8 µM): 0.425 | relative viability (LU99A; first compound 2.53 µM): 0.559 | relative viability (LU99A; first compound 8 µM): 0.263 | relative viability (CAL-12T; first compound 0.253 µM): 0.874 | relative viability (CAL-12T; first compound 0.8 µM): 0.887 | relative viability (CAL-12T; first compound 2.53 µM): 0.999 | relative viability (CAL-12T; first compound 8 µM): 0.907 | relative viability (BEN; first compound 0.253 µM): 0.559 | relative viability (BEN; first compound 0.8 µM): 0.5 | relative viability (BEN; first compound 2.53 µM): 0.617 | relative viability (BEN; first compound 8 µM): 0.545 | relative viability (NCI-H2085; first compound 0.253 µM): 0.826 | relative viability (NCI-H2085; first compound 0.8 µM): 0.691 | relative viability (NCI-H2085; first compound 2.53 µM): 0.799 | relative viability (NCI-H2085; first compound 8 µM): 0.624 | relative viability (NCI-H522; first compound 0.253 µM): 0.767 | relative viability (NCI-H522; first compound 0.8 µM): 0.86 | relative viability (NCI-H522; first compound 2.53 µM): 1.09 | relative viability (NCI-H522; first compound 8 µM): 0.781 | relative viability (NCI-H2342; first compound 0.253 µM): 0.744 | relative viability (NCI-H2342; first compound 0.8 µM): 0.599 | relative viability (NCI-H2342; first compound 2.53 µM): 0.923 | relative viability (NCI-H2342; first compound 8 µM): 0.654
